Results reported in PubChem BioAssay AID2060603 (Molecular Pharmacology Branch, DTP, NCI, 2025).
Several values for one entry are separate records, joined by “and”; a condition that tells them apart may be missing. Equal entries are not always repeated.

Test system: 422866-222-R5-J1-PDC spheroid viability
Experiment: Anticancer human tumor 422866-222-R5-J1-PDC patient-derived pancreatic adenocarcinoma cell line growth inhibition [CLK]
Conditions: spheroids with HUVEC and MSC; for viability, T/C: stronger effect = lower value
How it was run: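 Multi-cell-type spheroids combined patient-derived tumor cells with HUVEC endothelial cells and human mesenchymal stem cells. Paired agents were dosed in half-log steps down from about clinical Cmax, or from 10 microM where Cmax was unknown.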

[1] = curve of first compound, second compound 0.0316 µM
[2] = curve of first compound, second compound 0.1 µM
[3] = curve of first compound, second compound 0.316 µM
[4] = curve of first compound, second compound 1 µM
[5] = curve of first compound, second compound 3.16 µM
[6] = curve of first compound, second compound 10 µM
[7] = second compound 0.0316 µM, first compound 0.0316 µM
[8] = second compound 0.0316 µM, first compound 0.1 µM
[9] = second compound 0.0316 µM, first compound 0.316 µM
[10] = second compound 0.0316 µM, first compound 1 µM
[11] = second compound 0.0316 µM, first compound 3.16 µM
[12] = second compound 0.0316 µM, first compound 10 µM
[13] = second compound 0.1 µM, first compound 0.0316 µM
[14] = second compound 0.1 µM, first compound 0.1 µM
[15] = second compound 0.1 µM, first compound 0.316 µM
[16] = second compound 0.1 µM, first compound 1 µM
[17] = second compound 0.1 µM, first compound 3.16 µM
[18] = second compound 0.1 µM, first compound 10 µM
[19] = second compound 0.316 µM, first compound 0.0316 µM
[20] = second compound 0.316 µM, first compound 0.1 µM
[21] = second compound 0.316 µM, first compound 0.316 µM
[22] = second compound 0.316 µM, first compound 1 µM
[23] = second compound 0.316 µM, first compound 3.16 µM
[24] = second compound 0.316 µM, first compound 10 µM
[25] = second compound 1 µM, first compound 0.0316 µM
[26] = second compound 1 µM, first compound 0.1 µM
[27] = second compound 1 µM, first compound 0.316 µM
[28] = second compound 1 µM, first compound 1 µM
[29] = second compound 1 µM, first compound 3.16 µM
[30] = second compound 1 µM, first compound 10 µM
[31] = second compound 3.16 µM, first compound 0.0316 µM
[32] = second compound 3.16 µM, first compound 0.1 µM
[33] = second compound 3.16 µM, first compound 0.316 µM
[34] = second compound 3.16 µM, first compound 1 µM
[35] = second compound 3.16 µM, first compound 3.16 µM
[36] = second compound 3.16 µM, first compound 10 µM
[37] = second compound 10 µM, first compound 0.0316 µM
[38] = second compound 10 µM, first compound 0.1 µM
[39] = second compound 10 µM, first compound 0.316 µM
[40] = second compound 10 µM, first compound 1 µM
[41] = second compound 10 µM, first compound 3.16 µM
[42] = second compound 10 µM, first compound 10 µM
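Also: spheroids exposed to agents for seven days before readout.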

Work on `Nc1ccccc1NC(=O)c1ccc(CNC(=O)OCc2cccnc2)cc1` + CNC(=O)c1ccc(Nc2nc(OC3CCCC3)c3c(-c4ccc5nc(C)oc5c4)c[nH]c3n2)c(OC)c1 yielded an IC50 [1] of over 10000 nM, an IC50 [2] of over 10000 nM and an IC50 [3] of over 10000 nM. The IC50 [4] was 4640 nM, the IC50 [5] was over 10000 nM and the IC50 [6] was over 10000 nM. For the same molecule, the viability, T/C [7] was 115%, the viability, T/C [8] was 121% and the viability, T/C [9] was 157%. For the same molecule, the viability, T/C [10] was 90%, the viability, T/C [11] was 68.7% and the viability, T/C [12] was 74.7%. It also gave a viability, T/C [13] of 106%, a viability, T/C [14] of 116% and a viability, T/C [15] of 114%. The viability, T/C [16] was 99.8%, the viability, T/C [17] was 77.9% and the viability, T/C [18] was 79.2%. The viability, T/C [19] was 82.5%, the viability, T/C [20] was 76.5% and the viability, T/C [21] was 77%. For the same molecule, the viability, T/C [22] was 80.8%, the viability, T/C [23] was 64.5% and the viability, T/C [24] was 50.9%. It also gave a viability, T/C [25] of 75.1%, a viability, T/C [26] of 67.6% and a viability, T/C [27] of 69.1%. It also gave a viability, T/C [28] of 60.8%, a viability, T/C [29] of 58.5% and a viability, T/C [30] of 39.1%. For the same molecule, the viability, T/C [31] was 65.7%, the viability, T/C [32] was 60.2% and the viability, T/C [33] was 77.6%. The viability, T/C [34] was 76.2%, the viability, T/C [35] was 60.6% and the viability, T/C [36] was 49.6%. The viability, T/C [37] was 67.2%, the viability, T/C [38] was 60.6% and the viability, T/C [39] was 71.9%. It also gave a viability, T/C [40] of 61.2%, a viability, T/C [41] of 67.3% and a viability, T/C [42] of 48.1%.

With `NC(=O)C(=Cn1cnc(-c2cc(C(F)(F)F)cc(C(F)(F)F)c2)n1)c1cncnc1` the viability, T/C (compound 0.00949 µM) was 95.7% and 97.4%, the viability, T/C (compound 0.03 µM) was 103% and 84% and the viability, T/C (compound 0.0949 µM) was 86.1% and 81.5%. For the same molecule, the viability, T/C (compound 0.3 µM) was 72.6% and 58.2%, the viability, T/C (compound 0.949 µM) was 89.1% and 92.3% and the viability, T/C (compound 3 µM) was 76.9% and 76.2%. The IC50 (curve of compound) was over 3000 nM.

`CCCS(=O)(=O)Nc1ccc(F)c(C(=O)c2c[nH]c3ncc(-c4ccc(Cl)cc4)cc23)c1F` + CNC(=O)c1ccc(Nc2nc(OC3CCCC3)c3c(-c4ccc5nc(C)oc5c4)c[nH]c3n2)c(OC)c1 was tested, and the IC50 [1] was over 10000 nM, the IC50 [2] was over 10000 nM and the IC50 [3] was over 10000 nM. The IC50 [4] was over 10000 nM, the IC50 [5] was over 10000 nM and the IC50 [6] was over 10000 nM. It also gave a viability, T/C [7] of 93.6%, a viability, T/C [8] of 111% and a viability, T/C [9] of 141%. The viability, T/C [10] was 155%, the viability, T/C [11] was 190% and the viability, T/C [12] was 134%. The viability, T/C [13] was 99.8%, the viability, T/C [14] was 102% and the viability, T/C [15] was 114%. For the same molecule, the viability, T/C [16] was 152%, the viability, T/C [17] was 224% and the viability, T/C [18] was 122%. For the same molecule, the viability, T/C [19] was 81.5%, the viability, T/C [20] was 77.2% and the viability, T/C [21] was 79.3%. It also gave a viability, T/C [22] of 105%, a viability, T/C [23] of 101% and a viability, T/C [24] of 104%. It also gave a viability, T/C [25] of 69%, a viability, T/C [26] of 75.9% and a viability, T/C [27] of 81.1%. The viability, T/C [28] was 91%, the viability, T/C [29] was 114% and the viability, T/C [30] was 92.3%. For the same molecule, the viability, T/C [31] was 58.4%, the viability, T/C [32] was 70.1% and the viability, T/C [33] was 67.1%. For the same molecule, the viability, T/C [34] was 84.6%, the viability, T/C [35] was 128% and the viability, T/C [36] was 84%. It also gave a viability, T/C [37] of 57.8%, a viability, T/C [38] of 69.2% and a viability, T/C [39] of 74.8%. It also gave a viability, T/C [40] of 75.9%, a viability, T/C [41] of 117% and a viability, T/C [42] of 80.7%.

`CC(Nc1ccc2c(c1)OCCn1cc(N3C(=O)OCC3C(F)F)nc1-2)C(N)=O` (configuration not stated) + CN1CCN(c2cc(C(=O)Nc3cc4cc(-c5cnn(C)c5)ccc4cn3)ccn2)CC1 was tested, and the IC50 [1] was 265 nM, the IC50 [2] was 389 nM and the IC50 [3] was 307 nM. It also gave an IC50 [4] of under 31.6 nM, an IC50 [5] of under 31.6 nM and an IC50 [6] of under 31.6 nM. The viability, T/C [7] was 81.1%, the viability, T/C [8] was 78.1% and the viability, T/C [9] was 44.5%. It also gave a viability, T/C [10] of 37.3%, a viability, T/C [11] of 34% and a viability, T/C [12] of 27%. The viability, T/C [13] was 103%, the viability, T/C [14] was 68.3% and the viability, T/C [15] was 55.3%. The viability, T/C [16] was 40.5%, the viability, T/C [17] was 33.4% and the viability, T/C [18] was 31.8%. For the same molecule, the viability, T/C [19] was 88.7%, the viability, T/C [20] was 63.1% and the viability, T/C [21] was 50%. For the same molecule, the viability, T/C [22] was 42.6%, the viability, T/C [23] was 36.5% and the viability, T/C [24] was 34.3%. The viability, T/C [25] was 27.5%, the viability, T/C [26] was 29.1% and the viability, T/C [27] was 25.9%. It also gave a viability, T/C [28] of 22.4%, a viability, T/C [29] of 21.3% and a viability, T/C [30] of 18.6%. The viability, T/C [31] was 9.59%, the viability, T/C [32] was 11% and the viability, T/C [33] was 11.1%. It also gave a viability, T/C [34] of 10.5%, a viability, T/C [35] of 13.8% and a viability, T/C [36] of 12.3%. For the same molecule, the viability, T/C [37] was 2.29%, the viability, T/C [38] was 1.76% and the viability, T/C [39] was 2.37%. The viability, T/C [40] was 1.83%, the viability, T/C [41] was 3.35% and the viability, T/C [42] was 2.02%.

For `COc1c(OCCCN2CCOCC2)ccc2c3n(c(=NC(=O)c4cnc(N)nc4)nc12)CCN3`, the viability, T/C (compound 0.00316 µM) was 78.6% and 87.6%, the viability, T/C (compound 0.01 µM) was 57.4% and 58.9% and the viability, T/C (compound 0.0316 µM) was 37.6% and 32.8%. For the same molecule, the viability, T/C (compound 0.1 µM) was 33.2% and 29.1%, the viability, T/C (compound 0.316 µM) was 29.7% and 26% and the viability, T/C (compound 1 µM) was 32.4% and 33.2%. The IC50 (curve of compound) was 15.4 nM and 14.8 nM.

For `C#Cc1c(F)ccc2cc(O)cc(-c3ncc4c(N5CC6CCC(C5)N6)nc(OCC56CCCN5CC(F)C6)nc4c3F)c12` (configuration not stated) + CNC(=O)c1ccc(Nc2nc(OC3CCCC3)c3c(-c4ccc5nc(C)oc5c4)c[nH]c3n2)c(OC)c1, the IC50 [1] was 1070 nM, the IC50 [2] was 735 nM and the IC50 [3] was 298 nM. For the same molecule, the IC50 [4] was 223 nM, the IC50 [5] was 181 nM and the IC50 [6] was 202 nM. It also gave a viability, T/C [7] of 102%, a viability, T/C [8] of 93.5% and a viability, T/C [9] of 70.8%. It also gave a viability, T/C [10] of 53.7%, a viability, T/C [11] of 32.1% and a viability, T/C [12] of 26.1%. The viability, T/C [13] was 81.5%, the viability, T/C [14] was 67.9% and the viability, T/C [15] was 61.9%. For the same molecule, the viability, T/C [16] was 46.3%, the viability, T/C [17] was 33.9% and the viability, T/C [18] was 25.6%. It also gave a viability, T/C [19] of 71.7%, a viability, T/C [20] of 60.8% and a viability, T/C [21] of 47.2%. For the same molecule, the viability, T/C [22] was 41.6%, the viability, T/C [23] was 33.8% and the viability, T/C [24] was 26.8%. It also gave a viability, T/C [25] of 58.5%, a viability, T/C [26] of 58.7% and a viability, T/C [27] of 45.1%. The viability, T/C [28] was 37.3%, the viability, T/C [29] was 28.5% and the viability, T/C [30] was 24.6%. The viability, T/C [31] was 62.7%, the viability, T/C [32] was 51.9% and the viability, T/C [33] was 49.6%. For the same molecule, the viability, T/C [34] was 32.8%, the viability, T/C [35] was 39.4% and the viability, T/C [36] was 24%. It also gave a viability, T/C [37] of 64.9%, a viability, T/C [38] of 50.5% and a viability, T/C [39] of 46.4%. For the same molecule, the viability, T/C [40] was 42.5%, the viability, T/C [41] was 30.5% and the viability, T/C [42] was 21.9%.
